Source: ChEMBL document CHEMBL4052765, “Synthesis and antibacterial evaluation of novel 11-O-carbamoyl clarithromycin ketolides” (2017)
≈ marks a conversion by molar mass, not a printed value.

Assays:
Format in all cases: functional
Streptococcus pneumoniae [1] = experiment: Potency index, ratio of azithromycin MIC to compound MIC against erythromycin-resistant Streptococcus pneumoniae A22072
Streptococcus pneumoniae [2] = experiment: Potency index, ratio of clarithromycin MIC to compound MIC against erythromycin-resistant Streptococcus pneumoniae A22072
Streptococcus pneumoniae [3] = experiment: Antibacterial activity against erythromycin-resistant Streptococcus pneumoniae AB11 harboring harboring mef and erm gene after 24 h by NCCLS broth microdilution method; settings: AB11, 24 h
Streptococcus pyogenes [4] = experiment: Antibacterial activity against erythromycin-resistant Streptococcus pyogenes R1 after 24 h by NCCLS broth microdilution method; settings: R1, 24 h
Streptococcus pneumoniae [5] = experiment: Antibacterial activity against erythromycin-resistant Streptococcus pneumoniae A22072 harboring mef gene after 24 h by NCCLS broth microdilution method; settings: A22072, 24 h
Streptococcus pneumoniae [6] = experiment: Antibacterial activity against erythromycin-resistant Streptococcus pneumoniae B1 harboring erm gene after 24 h by NCCLS broth microdilution method; settings: B1, 24 h
Staphylococcus aureus [7] = experiment: Antibacterial activity against […] Staphylococcus aureus ATCC 29213 after 24 h by NCCLS broth microdilution method; settings: ATCC 29213, 24 h
Bacillus subtilis = experiment: Antibacterial activity against penicillin-susceptible Bacillus subtilis ATCC 9372 after 24 h by NCCLS broth microdilution method; settings: ATCC 9372, 24 h
Pseudomonas aeruginosa = experiment: Antibacterial activity against penicillin-susceptible Pseudomonas aeruginosa ATCC 27853 after 24 h by NCCLS broth microdilution method; settings: ATCC 27853, 24 h
Streptococcus pyogenes [8] = experiment: Antibacterial activity against erythromycin-susceptible Streptococcus pyogenes after 24 h by NCCLS broth microdilution method
Escherichia coli = experiment: Antibacterial activity against penicillin-susceptible Escherichia coli ATCC 25922 after 24 h by NCCLS broth microdilution method; settings: ATCC 25922, 24 h
Staphylococcus aureus [9] = experiment: Antibacterial activity against erythromycin-susceptible Staphylococcus aureus ATCC 25923 after 24 h by NCCLS broth microdilution method; settings: ATCC 25923, 24 h
Staphylococcus aureus [10] = experiment: Potency index, ratio of clarithromycin MIC to compound MIC against […] Staphylococcus aureus ATCC 29213

Structure (SMILES): CC[C@H]1OC(=O)[C@H](C)C(=O)[C@H](C)[C@@H](O[C@@H]2O[C@H](C)C[C@H](N(C)C)[C@H]2O)[C@](C)(OC)C[C@@H](C)C(=O)[C@H](C)[C@@H](OC(=O)NCCNC(=O)c2ccc([N+](=O)[O-])cc2N)[C@]1(C)O
- Ratio (Streptococcus pneumoniae [1]): 4
- Ratio (Streptococcus pneumoniae [2]): 8
- MIC (Streptococcus pneumoniae [3]): 64 µg/mL (≈ 76.4 µM)
- MIC (Streptococcus pyogenes [4]): > 128 µg/mL
- MIC (Streptococcus pneumoniae [5]): 0.5 µg/mL (≈ 0.597 µM)
- MIC (Streptococcus pneumoniae [6]): 128 µg/mL (≈ 153 µM)
- MIC (Staphylococcus aureus [7]): 128 µg/mL (≈ 153 µM)
- MIC (Bacillus subtilis): 1 µg/mL (≈ 1.19 µM)
- MIC (Pseudomonas aeruginosa): > 128 µg/mL
- MIC (Streptococcus pyogenes [8]): 0.5 µg/mL (≈ 0.597 µM)
- MIC (Escherichia coli): 128 µg/mL (≈ 153 µM)
- MIC (Staphylococcus aureus [9]): 8 µg/mL (≈ 9.55 µM)

Structure (SMILES): CC[C@H]1OC(=O)[C@H](C)C(=O)[C@H](C)[C@@H](O[C@@H]2O[C@H](C)C[C@H](N(C)C)[C@H]2O)[C@](C)(OC)C[C@@H](C)C(=O)[C@H](C)[C@@H](OC(=O)NCCNC(=O)/C=C/c2ccc(Cl)cc2)[C@]1(C)O
- Ratio (Streptococcus pneumoniae [1]): 4
- Ratio (Streptococcus pneumoniae [2]): 8
- MIC (Streptococcus pneumoniae [3]): 128 µg/mL (≈ 153 µM)
- MIC (Streptococcus pyogenes [4]): > 128 µg/mL
- MIC (Streptococcus pneumoniae [5]): 0.5 µg/mL (≈ 0.596 µM)
- MIC (Streptococcus pneumoniae [6]): 128 µg/mL (≈ 153 µM)
- MIC (Staphylococcus aureus [7]): 64 µg/mL (≈ 76.3 µM)
- MIC (Bacillus subtilis): 4 µg/mL (≈ 4.77 µM)
- MIC (Pseudomonas aeruginosa): > 128 µg/mL
- MIC (Streptococcus pyogenes [8]): 2 µg/mL (≈ 2.39 µM)
- MIC (Escherichia coli): > 128 µg/mL
- MIC (Staphylococcus aureus [9]): 16 µg/mL (≈ 19.1 µM)

Structure (SMILES): CC[C@H]1OC(=O)[C@H](C)C(=O)[C@H](C)[C@@H](O[C@@H]2O[C@H](C)C[C@H](N(C)C)[C@H]2O)[C@](C)(OC)C[C@@H](C)C(=O)[C@H](C)[C@@H](OC(=O)NCCNC(=O)c2ccc(Cl)cc2)[C@]1(C)O
- Ratio (Streptococcus pneumoniae [1]): 4
- MIC (Streptococcus pneumoniae [3]): 64 µg/mL (≈ 78.8 µM)
- MIC (Streptococcus pyogenes [4]): > 128 µg/mL
- MIC (Streptococcus pneumoniae [5]): 0.5 µg/mL (≈ 0.615 µM)
- MIC (Streptococcus pneumoniae [6]): 128 µg/mL (≈ 158 µM)
- MIC (Staphylococcus aureus [7]): 128 µg/mL (≈ 158 µM)
- MIC (Bacillus subtilis): 0.25 µg/mL (≈ 0.308 µM)
- MIC (Pseudomonas aeruginosa): 128 µg/mL (≈ 158 µM)
- MIC (Streptococcus pyogenes [8]): 1 µg/mL (≈ 1.23 µM)
- MIC (Escherichia coli): > 128 µg/mL
- MIC (Staphylococcus aureus [9]): 16 µg/mL (≈ 19.7 µM)

Structure (SMILES): CC[C@H]1OC(=O)[C@H](C)C(=O)[C@H](C)[C@@H](O[C@@H]2O[C@H](C)C[C@H](N(C)C)[C@H]2O)[C@](C)(OC)C[C@@H](C)C(=O)[C@H](C)[C@@H](OC(=O)NCCNC(=O)c2cc([N+](=O)[O-])cc([N+](=O)[O-])c2)[C@]1(C)O
- Ratio (Streptococcus pneumoniae [1]): 4
- Ratio (Streptococcus pneumoniae [2]): 8
- MIC (Streptococcus pneumoniae [3]): 64 µg/mL (≈ 73.7 µM)
- MIC (Streptococcus pyogenes [4]): 128 µg/mL (≈ 147 µM)
- MIC (Streptococcus pneumoniae [5]): 0.5 µg/mL (≈ 0.576 µM)
- MIC (Streptococcus pneumoniae [6]): 128 µg/mL (≈ 147 µM)
- MIC (Staphylococcus aureus [7]): 128 µg/mL (≈ 147 µM)
- MIC (Bacillus subtilis): 1 µg/mL (≈ 1.15 µM)
- MIC (Pseudomonas aeruginosa): 128 µg/mL (≈ 147 µM)
- MIC (Streptococcus pyogenes [8]): 0.125 µg/mL (≈ 0.144 µM)
- MIC (Escherichia coli): 128 µg/mL (≈ 147 µM)
- MIC (Staphylococcus aureus [9]): 8 µg/mL (≈ 9.22 µM)

Structure (SMILES): CC[C@H]1OC(=O)[C@H](C)C(=O)[C@H](C)[C@@H](O[C@@H]2O[C@H](C)C[C@H](N(C)C)[C@H]2O)[C@](C)(OC)C[C@@H](C)C(=O)[C@H](C)[C@@H](OC(=O)NCCNC(=O)c2ccccc2O)[C@]1(C)O
- MIC (Streptococcus pneumoniae [3]): 64 µg/mL (≈ 80.6 µM)
- MIC (Streptococcus pyogenes [4]): > 128 µg/mL
- MIC (Streptococcus pneumoniae [5]): 4 µg/mL (≈ 5.04 µM)
- MIC (Streptococcus pneumoniae [6]): 128 µg/mL (≈ 161 µM)
- MIC (Staphylococcus aureus [7]): 128 µg/mL (≈ 161 µM)
- MIC (Bacillus subtilis): 8 µg/mL (≈ 10.1 µM)
- MIC (Pseudomonas aeruginosa): 128 µg/mL (≈ 161 µM)
- MIC (Streptococcus pyogenes [8]): 4 µg/mL (≈ 5.04 µM)
- MIC (Escherichia coli): > 128 µg/mL
- MIC (Staphylococcus aureus [9]): 32 µg/mL (≈ 40.3 µM)

Structure (SMILES): CC[C@H]1OC(=O)[C@H](C)C(=O)[C@H](C)[C@@H](O[C@@H]2O[C@H](C)C[C@H](N(C)C)[C@H]2O)[C@](C)(OC)C[C@@H](C)C(=O)[C@H](C)[C@@H](OC(=O)NCCNC(=O)c2ccc([N+](=O)[O-])cc2)[C@]1(C)O
- MIC (Streptococcus pneumoniae [3]): 64 µg/mL (≈ 77.8 µM)
- MIC (Streptococcus pyogenes [4]): > 128 µg/mL
- MIC (Streptococcus pneumoniae [5]): 1 µg/mL (≈ 1.22 µM)
- MIC (Streptococcus pneumoniae [6]): 128 µg/mL (≈ 156 µM)
- MIC (Staphylococcus aureus [7]): 128 µg/mL (≈ 156 µM)
- MIC (Bacillus subtilis): 1 µg/mL (≈ 1.22 µM)
- MIC (Pseudomonas aeruginosa): 128 µg/mL (≈ 156 µM)
- MIC (Streptococcus pyogenes [8]): 0.25 µg/mL (≈ 0.304 µM)
- MIC (Escherichia coli): > 128 µg/mL
- MIC (Staphylococcus aureus [9]): 16 µg/mL (≈ 19.4 µM)

Structure (SMILES): CC[C@H]1OC(=O)[C@H](C)C(=O)[C@H](C)[C@@H](O[C@@H]2O[C@H](C)C[C@H](N(C)C)[C@H]2O)[C@](C)(OC)C[C@@H](C)C(=O)[C@H](C)[C@@H](OC(=O)NCCNC(=O)/C=C/c2ccco2)[C@]1(C)O
- Ratio (Staphylococcus aureus [10]): 4
- MIC (Streptococcus pneumoniae [3]): 128 µg/mL (≈ 161 µM)
- MIC (Streptococcus pyogenes [4]): > 128 µg/mL
- MIC (Streptococcus pneumoniae [5]): 1 µg/mL (≈ 1.26 µM)
- MIC (Streptococcus pneumoniae [6]): 128 µg/mL (≈ 161 µM)
- MIC (Staphylococcus aureus [7]): 16 µg/mL (≈ 20.2 µM)
- MIC (Bacillus subtilis): 8 µg/mL (≈ 10.1 µM)
- MIC (Pseudomonas aeruginosa): 128 µg/mL (≈ 161 µM)
- MIC (Streptococcus pyogenes [8]): 4 µg/mL (≈ 5.04 µM)
- MIC (Escherichia coli): 128 µg/mL (≈ 161 µM)
- MIC (Staphylococcus aureus [9]): 64 µg/mL (≈ 80.6 µM)

Structure (SMILES): CC[C@H]1OC(=O)[C@H](C)C(=O)[C@H](C)[C@@H](O[C@@H]2O[C@H](C)C[C@H](N(C)C)[C@H]2O)[C@](C)(OC)C[C@@H](C)C(=O)[C@H](C)[C@@H](OC(=O)NCCNC(=O)/C=C/c2ccc(C)cc2)[C@]1(C)O
- MIC (Streptococcus pneumoniae [3]): 64 µg/mL (≈ 78.2 µM)
- MIC (Streptococcus pyogenes [4]): > 128 µg/mL
- MIC (Streptococcus pneumoniae [5]): 4 µg/mL (≈ 4.89 µM)
- MIC (Streptococcus pneumoniae [6]): 128 µg/mL (≈ 156 µM)
- MIC (Staphylococcus aureus [7]): 64 µg/mL (≈ 78.2 µM)
- MIC (Bacillus subtilis): 8 µg/mL (≈ 9.78 µM)
- MIC (Pseudomonas aeruginosa): > 128 µg/mL
- MIC (Streptococcus pyogenes [8]): 4 µg/mL (≈ 4.89 µM)
- MIC (Escherichia coli): > 128 µg/mL
- MIC (Staphylococcus aureus [9]): 64 µg/mL (≈ 78.2 µM)
